Data published in patent US20250114313A1, “OLIGO-BENZAMIDE ANALOGS AND THEIR USE IN CANCER TREATMENT” (BOARD OF REGENTS, THE UNIVERSITY OF TEXAS SYSTEM, priority 2022, published 2025).

Legend:
[1] = test system: 21 human preclinical TNBC cell line models; test: CellTiter-Glo cell viability, TNBC cell lines; type: cell-based; settings: 21 TNBC cell lines, read-out: anti-proliferative IC50, CellTiter-Glo
Experimental: Cell viability assays: Cells were seeded in 96-well plates (2×10^3 cells/well) one day before the treatment. Cells were treated with varying concentrations of ERX-41 or ERX-11 analogs for 3-6 days. Then effects of ERX-41 or ERX-11 analogs on cell viability were measured in triplicate or sextuplicate with multiple biological replicates using the WST-1 (Promega), MTT as previously described^33 or CellTiter-Glo 2.0 (Promega) assays.

LAL lipase activity = biological target: T1, LAL lipase activity (Homo sapiens, UniProt P38571); test: Lipase activity assay (4-MUP), SUM-159 cell lysate; type: biochemical; settings: SUM-159 cells; 30 μM
T1 construct: heat stability of LAL or vinculin protein in SUM-159 cells; endogenous in cells; host or cells: SUM-159
T1 sequence (P38571 77-399): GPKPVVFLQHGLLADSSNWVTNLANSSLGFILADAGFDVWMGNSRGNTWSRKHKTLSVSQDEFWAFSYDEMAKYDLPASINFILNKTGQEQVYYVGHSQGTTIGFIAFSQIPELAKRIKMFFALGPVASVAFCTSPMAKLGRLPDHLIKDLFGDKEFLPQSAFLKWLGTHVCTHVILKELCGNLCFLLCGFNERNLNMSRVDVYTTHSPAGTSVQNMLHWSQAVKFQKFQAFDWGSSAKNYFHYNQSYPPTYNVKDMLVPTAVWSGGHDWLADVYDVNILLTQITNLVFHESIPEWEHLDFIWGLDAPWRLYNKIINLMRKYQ
Experimental: Lipase activity assay: Lipase activity assays were performed as described previously (Dairaku, et al)^37. Briefly, a 0.345 mM substrate solution was prepared from 1.2 mL of 13.3 mM 4-MUP and 42 mL of 100 mM sodium acetate buffer pH 4.0, 1.0% (v/v) Triton X-100 and 3.0 mL of 0.5% (w/v) cardiolipin. For the enzyme reaction, 50 μL of the substrate in buffer solution, 40 μL of diluted cell lysate and 10 μL of DMSO or 30 μM Lalistat2 or 30 μM ERX-41 were combined in a black 96-well plate. The plates were sealed with an adhesive aluminum film and incubated in a 37° C. incubator for 1 h. The reactions were terminated using 200 μL of 150 mM EDTA at pH 11.5. The fluorescence of the plates were read immediately with synergy H1 fluorescence microplate reader (BioTek) using a 365-nm excitation filter and a 450-nm emission filter. The LIPA lipase activity was calculated by subtracting the enzymatic activity of the inhibited (with Lalistat2) reaction from that of the uninhibited (without Lalistat2) reaction.

## CC(C)COc1cc(C(=O)Nc2ccc(C(=O)N[C@H]3CC[C@H](C)CC3)cc2OCC(C)C)ccc1NC(=O)c1ccc([N+](=O)[O-])c(OCCO)c1 [ERX-41]
[1]
  IC50: < 0.25 µM
LAL lipase activity
  lipase activity of LIPA: no inhibition of lipase activity
